{"source": "patent US8961959B2", "about": "“Glucosylceramide synthase inhibitors and therapeutic methods using the same” (The Regents of the University of Michigan, priority 2011, dated 2015)", "key": {"[1]": {"test_system": "MDR1-MDCKII cells", "test": "GCS inhibition (GlcCer production) in MDCKII cells stably expressing human MDR1", "type": "cell-based, canine", "details": "for IC50: Canis lupus familiaris", "procedure": "Parental (WT-)MDCKII cells and MDCKII cells retrovirally transduced with human MDR-1 cDNA were obtained from the Netherlands Cancer Institute. Both cell lines were routinely maintained in medium consisting of Opti-MEM/F 12 (1:1), 5% FBS, 100 U/mL of penicillin, 100 μg/mL streptomycin and […] L-glutamine. MDCKII cells were newly thawed from frozen ampules every two months.\nStock solutions of water-insoluble glycosphingolipid inhibitors (100 mM) were prepared by dissolving each inhibitor into 100% ethanol as previously described (3). The inhibitor-ethanol solutions then were diluted 50× into 2 mM delipidated bovine serum albumin-phosphate buffered saline solution to make water-soluble glycosphingolipid inhibitor-bovine serum albumin complexes. The inhibitor-bovine serum album complexes were sterile-filtered and stored at −20° C. Prior to use, portions of the inhibitor-bovine serum albumin complexes were further diluted with Opti-F12 to make treatment solutions. Equal amounts of bovine serum albumin and ethanol were added into the control cultures. WT and MDR1-MDCKII cells (5×10^5) were seeded into 10-cm culture dishes containing 10 ml of Opti-F12 with 5% FBS. […]\nFollowing inhibitor treatment, whole cellular lipids of wild type and MDR1-MDCKII cells were extracted as previously described in detail (10). Briefly, cells were washed with ice-cold phosphate buffered saline, fixed by methanol, and collected with rubber scraper. Chloroform was then added to yield a theoretical ratio of chloroform:methanol:water at 1:2:0.8 (v/v/v) to form a mono-phase. Cell debris and proteins were removed by centrifugation at 2200×g for 30 min. The supernatants were portioned by adding chloroform and 0.9% NaCl. The lower organic phases containing neutral glycosphingolipids lipids were washed with methanol and 0.9% NaCl, and subjected to base- and acid-hydrolysis (10). A portion of purified glycosphingolipids normalized to 100 nmol of total phospholipids was analyzed by high performance thin layer chromatography. The thin layer chromatography separations were processed twice. The plate pretreated with 1% sodium borate was first developed in a solvent system consisting of chloroform/methanol (98/2, v/v). After air drying, the plate was then developed in a solvent system containing chloroform/methanol/water (70/30/4, v/v/v). The levels of glucosylceramide were detected by charring with 8% cupric sulfate in 8% phosphoric acid, and quantified by densitometric scanning using ImageJ, NIH Image."}, "[2]": {"test_system": "C57BL/6 mice", "test": "Organ GlcCer content in C57BL/6 mice after short term i.p. dosing", "type": "in vivo, mouse", "details": "for change in brain GlcCer levels: 10 mg/kg/day i.p. for 3 days, 12 h after last injection; for fall in brain GlcCer levels: 30 mg/kg q 12 h for 3 days i.p.; for brain GlcCer content, short term dosing: i.p. for 3 days, in words; for liver and kidney GlcCer levels: i.p. 3 days", "procedure": "C57BL/6 mice were maintained on regular chow in specific-pathogen-free facilities. All animal studies were performed under the review of the University of Michigan Committee on the Use and Care of Animals and conformed to the National Institutes of Health Guide for the Care and Use of Laboratory Animals. Injection solutions were prepared from inhibitor-ethanol stock solution (100 mM) A portion of the stock solution was evaporated under a stream of N2 gas. Dried eliglustat tartrate (compound 3a) was directly dissolved into 1× phosphate buffered saline. […] The acidic solution was neutralized by mixing 100 μL of 10× phosphate buffered saline with 636.3 μL of water to bring the total volume to one ml. Inhibitor solutions were sterilized by passage through a […]. Inhibitor recovery after filtration was confirmed by UV spectrometry and exceeded 99%. For control injections, phosphate buffered saline containing the same amount of HCl was used. Inhibitors were given to 6 to 8 week old female or male C57BL/6 mice by intraperitoneal injection volume at 1% of body weight.\nLipid extractions of liver, kidney, and brain were performed as previously described (7). Briefly, frozen liver (about 0.5 g), two kidneys (about 0.3 g) and whole brain (about 0.4 g) were individually homogenized in sucrose buffer (250 mM sucrose, pH 7.4, 10 mM HEPES and 1 mM EDTA), at 0.2 g tissue/1 mL of sucrose buffer, with a Tri-R homogenizer. Each 0.8 mL of homogenate was mixed with 2 mL of methanol and 1 mL of chloroform, bath sonicated for 1 min and incubated at room temperature for 1 h. Tissue debris were removed by centrifugation at 2,400×gravity for 30 min. The pellets were re-extracted by mixing with 1 mL of methanol, 0.5 mL of chloroform and 0.4 mL of 0.9% NaCl (chloroform/methanol/0.9% NaCl, 1:2:0.8), incubated at room temperature for 1 h and centrifuged at 2,400×gravity for another 30 min. Two extracts were combined and mixed with 4.5 mL of chloroform and 1.2 mL of 0.9% NaCl (chloroform/methanol/0.9% NaCl, 2:1:0.8). After centrifugation at 800×gravity for 5 min, lower layer was washed with 3 mL of methanol and 2.4 mL of 0.9% NaCl. Second washing was carried with 3 mL of methanol, 2 mL of water and 0.4 mL of 0.9% NaCl followed by a 5 min centrifugation at 800×gravity. The resultant lower phase was collected and dried under a stream of N2 gas.\nThe analysis of neutral glycosphingolipids from mouse liver, kidney, and brain was processed after alkaline methanolysis. […] lipids were incubated with 2 mL of chloroform and 1 ml of 0.21N NaOH in methanol for 2 h (kidney) or 7.5 h (liver and brain) at RT. The lipid extract was normalized to 0.5 μmol of total phospholipid phosphate (liver and kidney) or 2 μmol of total phospholipid phosphate (brain) for high performance thin layer chromatography analysis. After alkaline methanolysis, the brain lipids were passed through a silica gel column (7). Borate-impregnated thin layer chromatography plates were developed in a two solvent system. Plates were first developed in chloroform/methanol (98:2, v/v). The plates loaded with kidney and liver lipids were then developed in chloroform/methanol/water (64:24:4, v/v/v), and brain lipids were further separated in chloroform/methanol/water (60:30:6, v/v/v). GlcCer levels were quantified by comparison to known standards."}}, "note": "“Also recorded” adds a separate entry of the source. Like-named read-outs stand apart in the source and are kept apart here."}
{"smiles": "O=C(CC1Cc2ccccc2C1)N[C@H](CN1CCCC1)[C@H](O)c1ccc2c(c1)OCCO2", "note": "[Compound 3h, 2-(2,3-dihydro-1H-inden-2-yl)-N-((1R,2R)-1-(2,3-dihydrobenzo[b][1,4]dioxin-6-yl)-1-hydroxy-3-(pyrrolidin-1-yl)propan-2-yl)acetamide]", "values": [{"measurement": "IC50", "setting": "[1]; inhibition of GlcCer production in MDCKII cells stably expressing human MDR1, 24 h, read-out: MDR-MDCK IC50", "result": 24.3, "unit": "nM"}, {"measurement": "change in brain GlcCer levels", "setting": "[2]", "result": "ten percent decrease"}, {"measurement": "fall in brain GlcCer levels", "setting": "[2]", "result": 17, "unit": "%"}, {"measurement": "brain GlcCer content, short term dosing", "setting": "[2]", "result": "significant dose dependent decrease; also recorded: significantly lowered"}]}
{"smiles": "CCCCCCCC(=O)N[C@H](CN1CCCC1)[C@H](O)c1ccc2c(c1)OCCO2", "note": "[Compound 3a, N-((1R,2R)-1-(2,3-dihydrobenzo-[b][1,4]dioxin-6-yl)-1-hydroxy-3-(pyrrolidin-1-yl)propan-2-yl)octanamide, reference compound]", "values": [{"measurement": "IC50", "setting": "[1]; MDR1-MDCKII cells, 24 h, read-out: IC50 for reduction in GlcCer levels, MDR1 expressing cells", "result": 31.7, "unit": "nM"}, {"measurement": "MDR/WT", "setting": "[1]; ratio of MDR1-MDCKII IC50 divided by WT-MDCKII IC50", "result": 2.3}, {"measurement": "change in brain GlcCer levels", "setting": "[2]", "result": "without changes"}, {"measurement": "fall in brain GlcCer levels", "setting": "[2]", "result": "without any changes"}, {"measurement": "liver and kidney GlcCer levels", "setting": "[2]", "result": "significantly lowered"}, {"measurement": "liver and kidney GlcCer levels", "setting": "[2]; listed as eliglustat", "result": "lowered"}, {"measurement": "brain GlcCer content, short term dosing", "setting": "[2]", "result": "failed to demonstrate any change"}, {"measurement": "brain GlcCer content, short term dosing", "setting": "[2]; listed as eliglustat tartrate", "result": "an effect not seen"}]}
